Experimental data as given in US7019132B2, “Porphyrin derivatives” (Kostarworld Co., Ltd., priority 2003, dated 2006).

Key:
EMT6 cells [1] = experiment: Annexin V/PI staining for cell apoptosis; type: cell-based, mouse; settings: PDT treatment group 0.2 μg/hr; above 90% of cells survived in control
Description: FIG. 4 presents the staining result with Annexin V/PI staining to study the action mechanism of cell apoptosis.

EMT6 cell = experiment: MMP (mitochondrial membrane potential), JC-1 dye staining, FACS analysis; type: cell-based, mouse; settings: after PDT, JC-1 staining
Description: FIG. 8 depicts the diagram determining MMP (mitochondrial membrane potential) within EMT6 cell after the treatment of PDT and JC-1 dye staining by FACS analysis.

EMT6 tumor = experiment: In vivo PDT assay, EMT6 breast cancer transplanted to BALB/c mouse
Experimental: DH-1-180-3 as a test sample of the present invention and photofrin (photogem®) as a control group were used in test.
The tumor size of each mice was determined using by caliper at the interval of 2 or 3 days and the survival ratio of the mice according to tumor was also determined.

[2] = Acute toxicity test on ICR mice; type: in vivo; settings: i.p. 20, 10 and 1 mg/kg, observed 24 hrs
Experimental: (§1) The acute toxicity tests on ICR mice (mean body weight 25±5 g) and Sprague-Dawley rats (235±10 g) were performed using the compounds 1 and 10. Each group consisting of 3 mice or rats was administrated intraperitoneally with 20 mg/kg, 10 mg/kg and 1 mg/kg of test compounds or solvents (0.2 ml, i.p.), respectively and observed for 24 hrs.

[3] = Acute toxicity test on Sprague-Dawley rats; type: in vivo; settings: i.p. 20, 10 and 1 mg/kg, observed 24 hrs
Experimental: as §1

[4] = λexcitation 508 nm, toluene, air-saturated, 21° C.
Experimental: The transforming activity of the target compounds into singlet oxygen state was measured by following methods.
The experimental assay was performed under air-saturated condition (99.999% ultra-purified gas) using toluene (Merck Co. HPLC grade) as a solvent, in the oxygen concentration in the solution of 2.1×10^−3 M at 21° C.

mouse EMT6 cell line [5] = test system: mouse EMT6 cell line
Experimental: (§2) Breast cancer cell line (EMT6; 1×10^6 cells/mouse) was cultured in culture medium (DMEM+10% FBS+100 units of Penicillin+100 μg streptomycin), treated with 0.25% Trypsin-EDTA to collect the cells and the number of cells was counted using by Trypan blue staining reagent.
(§3) Each 3 ml of cells was added to 35 mm of culture dish in the concentration of 2×10^5 cells/ml and incubated in 5% CO2 incubator for 24 hrs in order that the cells be arranged to be made a mono-layer.
(§4) Photosensitizing substance was added thereto and irradiation was subjected thereon at the strength of 1.2 J using by halogen lamp. The culture dishes were transferred to incubators and incubated.
(§5) The cell cytotoxicity caused by PDT was analyzed by MTT assay and the morphology of cells was observed by microscopy.
(§6) Conventional photosensitizer, i.e., photogem®, was used as a comparative control group and several factors such as the concentration of test samples, the irradiation strength of light and the absorption time of samples etc were modified in the present experiment.

EMT6 cells [6] = test system: EMT6 cells
mouse EMT6 cell line [7] = experiment: Cell cytotoxicity caused by PDT on EMT6 cell line, MTT assay
Experimental: as §2, §3, §4, §5, §6

Substance: methyl pheophorbide α triethylene glycol ester [DH-1-180-3]
- dead cells (EMT6 cells [1]): 50 to 60%
- MMP (mitochondrial membrane potential) (EMT6 cell): remarkably decreased
- growing ratio of tumor (EMT6 tumor; 0.4 and 0.8 mg/kg/mouse, light 1.2 J 3 h later, vs control and photofrin (2 mg/kg/mouse)): remarkably decreased
- survival ratio (EMT6 tumor; PDT treatment group vs control group): extended
- acute toxicity findings [2]: no treatment-related effects on mortality, clinical signs, body weight changes and gross findings
- acute toxicity findings [3]: no treatment-related effects on mortality, clinical signs, body weight changes and gross findings
- transformed photon yield (singlet oxygen state) [4]: 0.60 (5%)
- cell cytotoxicity without light (mouse EMT6 cell line [5]): do not show cell cytotoxicty
- intensity of irradiating light for strongest cytotoxicity / optimum (mouse EMT6 cell line [5]): 1.2 J
- concentration showing the strongest cell cytotoxicity (EMT6 cells [6]): at least 0.4 μg
- duration time showing the strongest cell cytotoxicity (EMT6 cells [6]): at least 60 minutes
- optimum absorption time (mouse EMT6 cell line [7]; 0.4 μg/ml, 1.2 J): 1 h
- LD100 (mouse EMT6 cell line [7]; EMT6, MTT assay, with light irradiation): 0.4 µg
- optimum concentration of photosensitizer used in PDT (mouse EMT6 cell line [7]; absorption 1 hour, 1.2 J, analysis at 24 hrs): 0.4 µg/mL
